Assay [1] concerns the target human BRAF (Homo sapiens, UniProt P15056). As to the kind of experiment: Protein kinase assay (33P-ATP filter binding), human BRAF, 10-dose IC50. The format is biochemical. Conditions: MEK1 (K97R) substrate 1 micromolar, ATP 25 micromolar, read-out: B-RAF IC50. Here is the method: Protein kinase assay: Assay platform was used to measure kinase/inhibitor interactions as described previously (Anastassiadis et al., 2011). In brief, for each reaction, kinase and substrate were mixed in a buffer containing 20 mM HEPES (pH 7.5), 10 mM MgCl2, 1 mM EGTA, 0.02% Brij35, 0.02 mg/mL BSA, 0.1 mM Na3VO4, 2 mM DTT, and […]. All compounds were solubilized in DMSO. Compounds were then added to each reaction mixture via acoustic dispense using an ECHO 550 nanoliter dispenser. For human RAF1 testing, human MEK1 (K97R) was used as a substrate at a concentration of 3 micromolar, with a final ATP concentration of 10 micromolar. For human BRAF testing, human MEK1 (K97R) was used as a substrate at 1 micromolar concentration, with a final ATP concentration of 25 micromolar. […] After a 20-min incubation, ATP (Sigma-Aldrich, St. Louis, Mo. 63178) and [g33P] ATP (specific activity 10 microCi/microliter) purchased at PerkinElmer (Boston, Mass., 02118 Cat #BLU 003H250UC) were added at a final total concentration of […]. Reactions were carried out at room temperature for 2 hr and spotted onto P81 ion exchange cellulose chromatography paper (Reaction Biology). Filter paper was washed in 0.75% phosphoric acid to remove unincorporated ATP. The percent remaining kinase activity relative to a vehicle-containing (DMSO) kinase reaction was calculated for each kinase/inhibitor pair. IC50 values were calculated using Prism 5 (GraphPad).

Assay [2] concerns the target human RAF1 (Homo sapiens, UniProt P04049). Briefly: Protein kinase assay (33P-ATP filter binding), human RAF1, 10-dose IC50. The format is biochemical. Conditions: MEK1 (K97R) substrate 3 micromolar, ATP 10 micromolar, read-out: RAF-1 IC50. An outline of the steps: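 Radiometric filter-binding format: 10 µM ATP, 3 µM MEK1 (K97R) as substrate for human RAF1, 2 hr at room temperature in 20 mM HEPES pH 7.5 with 10 mM MgCl2. Compounds were dispensed acoustically from DMSO. IC50 came from percent kinase activity relative to vehicle over a 10-dose series.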

We go through 22 compounds from patent US20230081390A1, “INHIBITORS OF RAF KINASES” (Kinnate Biopharma Inc., priority 2019, published 2023).

A value given as a limit tells only on which side of the number the result lay.

Sequence of human RAF1 (P04049 whole entry): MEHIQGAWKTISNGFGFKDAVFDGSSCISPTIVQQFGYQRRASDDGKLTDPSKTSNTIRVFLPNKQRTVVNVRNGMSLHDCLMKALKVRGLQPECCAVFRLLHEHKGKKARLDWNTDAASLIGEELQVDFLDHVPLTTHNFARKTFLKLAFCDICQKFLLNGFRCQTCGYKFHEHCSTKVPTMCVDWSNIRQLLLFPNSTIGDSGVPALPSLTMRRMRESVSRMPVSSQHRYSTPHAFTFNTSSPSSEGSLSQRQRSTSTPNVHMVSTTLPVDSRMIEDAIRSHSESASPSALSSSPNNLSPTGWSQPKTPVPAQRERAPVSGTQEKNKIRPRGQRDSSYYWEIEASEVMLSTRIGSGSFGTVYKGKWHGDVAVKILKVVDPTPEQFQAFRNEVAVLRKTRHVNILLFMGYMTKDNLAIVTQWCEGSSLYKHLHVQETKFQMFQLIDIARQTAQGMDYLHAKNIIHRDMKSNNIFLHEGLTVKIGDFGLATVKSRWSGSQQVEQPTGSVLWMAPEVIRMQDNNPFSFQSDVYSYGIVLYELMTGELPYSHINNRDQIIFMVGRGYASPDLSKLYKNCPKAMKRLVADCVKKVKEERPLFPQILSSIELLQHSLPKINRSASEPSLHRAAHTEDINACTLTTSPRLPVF
Sequence of human BRAF (P15056 whole entry): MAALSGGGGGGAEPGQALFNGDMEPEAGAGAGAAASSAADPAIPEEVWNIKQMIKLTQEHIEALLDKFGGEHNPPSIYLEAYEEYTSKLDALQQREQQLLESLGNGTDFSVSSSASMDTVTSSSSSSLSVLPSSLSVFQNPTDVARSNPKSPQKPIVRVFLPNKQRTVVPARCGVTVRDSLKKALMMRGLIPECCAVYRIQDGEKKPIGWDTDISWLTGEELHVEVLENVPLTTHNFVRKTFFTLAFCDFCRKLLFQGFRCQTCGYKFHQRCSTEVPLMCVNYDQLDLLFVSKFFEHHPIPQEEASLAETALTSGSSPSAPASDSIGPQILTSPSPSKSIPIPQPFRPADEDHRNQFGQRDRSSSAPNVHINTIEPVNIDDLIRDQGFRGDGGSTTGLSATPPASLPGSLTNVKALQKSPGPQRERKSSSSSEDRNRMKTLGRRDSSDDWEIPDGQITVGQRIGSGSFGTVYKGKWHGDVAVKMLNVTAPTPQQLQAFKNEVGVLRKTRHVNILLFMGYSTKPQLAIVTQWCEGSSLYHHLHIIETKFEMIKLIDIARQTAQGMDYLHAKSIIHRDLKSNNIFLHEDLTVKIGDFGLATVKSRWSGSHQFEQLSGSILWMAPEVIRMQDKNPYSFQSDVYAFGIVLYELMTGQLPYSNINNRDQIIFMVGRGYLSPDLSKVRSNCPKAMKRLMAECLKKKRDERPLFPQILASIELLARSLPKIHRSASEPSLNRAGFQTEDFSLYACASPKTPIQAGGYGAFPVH

One may read the IC50 as the point on the concentration scale where inhibition reaches its midpoint. For `Cc1cc(F)c(NC(=O)N2CCC(C(F)(F)F)C2)cc1-c1cc(OCCO)nc(N2CCOCC2)c1` (racemic) [Example 3, (RS)-N-(2-fluoro-5-(2-(2-hydroxyethoxy)-6-morpholinopyridin-4-yl)-4-methylphenyl)-3-(trifluoromethyl)pyrrolidine-1-carboxamide], the figures for the IC50 in assay [1] and in assay [2] were 10 to 100 nM and < 10 nM, respectively.

Consider `Cc1cc(F)c(NC(=O)N2CCCC(C(F)(F)F)C2)cc1-c1cc(OCCO)nc(N2CCOCC2)c1` (racemic) [Example 4, (RS)-N-(2-fluoro-5-(2-(2-hydroxyethoxy)-6-morpholinopyridin-4-yl)-4-methylphenyl)-3-(trifluoromethyl)piperidine-1-carboxamide], for which the IC50 is 10 to 100 nM in assay [1] and < 10 nM in assay [2].

As to `Cc1cc(F)c(NC(=O)N2CCC(C(C)(C)C)C2)cc1-c1cc(OCCO)nc(N2CCOCC2)c1` (racemic) [Example 5, (RS)-3-(tert-butyl)-N-(2-fluoro-5-(2-(2-hydroxyethoxy)-6-morpholinopyridin-4-yl)-4-methylphenyl)pyrrolidine-1-carboxamide], the IC50 in assay [1] was 10 to 100 nM; in assay [2] it was < 10 nM. Turning to `Cc1cc(F)c(NC(=O)N2CCNC(C(F)(F)F)C2)cc1-c1cc(OCCO)nc(N2CCOCC2)c1` (racemic) [Example 7, (RS)-N-(2-fluoro-5-(2-(2-hydroxyethoxy)-6-morpholinopyridin-4-yl)-4-methylphenyl)-3-(trifluoromethyl)piperazine-1-carboxamide], the IC50 in assay [1] was 100 to 1000 nM; in assay [2] it was < 10 nM. Consider `Cc1ccc(NC(=O)N2CC=C(CC(F)(F)F)C2)cc1-c1cc(OCC(C)(C)O)nc(N2CCOCC2)c1` [Example 216, N-[3-[2-(2-hydroxy-2-methylpropoxy)-6-(morpholin-4-yl)pyridin-4-yl]-4-methylphenyl]-3-(2,2,2-trifluoroethyl)-2,5-dihydropyrrole-1-carboxamide], for which the IC50 in assay [2] was < 10 nM. `Cc1ccc(NC(=O)N2CC[C@@H](CC(F)(F)F)C2)cc1-c1cc(OC2CC(C)(O)C2)nc(N2CCOCC2)c1` (stereo partly drawn) [Example 217, (3S)-N-[3-[2-(3-hydroxy-3-methylcyclobutoxy)-6-(morpholin-4-yl)pyridin-4-yl]-4-methylphenyl]-3-(2,2,2-trifluoroethyl)pyrrolidine-1-carboxamide]: in assay [2], the IC50 is < 10 nM. As to `Cc1ccc(NC(=O)N2CC[C@@H](CC(F)(F)F)C2)cc1-c1cc(OCC2(O)CC2)nc(N2CCOCC2)c1` [Example 218, (3S)-N-(3-[2-[(1-hydroxycyclopropyl)methoxy]-6-(morpholin-4-yl)pyridin-4-yl]-4-methylphenyl)-3-(2,2,2-trifluoroethyl)pyrrolidine-1-carboxamide], in assay [2], the IC50 was < 10 nM. On to `Cc1ccc(NC(=O)N2CC[C@@H](CC(F)(F)F)C2)cc1-c1cc(O[C@@H]2CCC(F)(F)C2)nc(N2CCOCC2)c1` [Example 219, (3S)-N-[3-(2-[[(1R)-3,3-difluorocyclopentyl]oxy]-6-(morpholin-4-yl)pyridin-4-yl)-4-methylphenyl]-3-(2,2,2-trifluoroethyl)pyrrolidine-1-carboxamide], for which, in assay [2], the IC50 is < 10 nM.

Turning to `Cc1ccc(NC(=O)N2CC[C@@H](CC(F)(F)F)C2)cc1-c1cc(O[C@H]2CCC(F)(F)C2)nc(N2CCOCC2)c1` [Example 220, (3S)-N-[3-(2-[[(1S)-3,3-difluorocyclopentyl]oxy]-6-(morpholin-4-yl)pyridin-4-yl)-4-methylphenyl]-3-(2,2,2-trifluoroethyl)pyrrolidine-1-carboxamide], in assay [2], the IC50 is < 10 nM.

`Cc1ccc(NC(=O)N2CC[C@@H](CC(F)(F)F)C2)cc1-c1cc(OCCS(C)(=N)=O)nc(N2CCOCC2)c1` (stereo partly drawn) [Example 221, (3S)-N-[3-(2-[2-[imino(methyl)oxo-λ^6-sulfanyl]ethoxy]-6-(morpholin-4-yl)pyridin-4-yl)-4-methylphenyl]-3-(2,2,2-trifluoroethyl)pyrrolidine-1-carboxamide]: the IC50 in assay [2] is < 10 nM. On the same count and under the same terms, as for `Cc1ccc(NC(=O)N2CC=C(CC(F)(F)F)C2)cc1-c1cc(OC[C@@H](C)O)nc(N2CCOCC2)c1` [Example 222, (R)-N-(3-(2-(2-hydroxypropoxy)-6-morpholinopyridin-4-yl)-4-methylphenyl)-3-(2,2,2-trifluoroethyl)-2,5-dihydro-1H-pyrrole-1-carboxamide], the figure is < 10 nM; as for `Cc1ccc(NC(=O)N2CC[C@@H](CC(F)(F)F)C2)cc1-c1cc(OC2CCC(C)(O)C2)nc(N2CCOCC2)c1` (stereo partly drawn) [Example 223, (3S)-N-(3-[2-[(3-hydroxy-3-methylcyclopentyl)oxy]-6-(morpholin-4-yl)pyridin-4-yl]-4-methylphenyl)-3-(2,2,2-trifluoroethyl)pyrrolidine-1-carboxamide], < 10 nM; as for `Cc1ccc(NC(=O)N2CC[C@@H](CC(F)(F)F)C2)cc1-c1cc(OCC2(O)COC2)nc(N2CCOCC2)c1` [Example 224, (3S)-N-(3-[2-[(3-hydroxyoxetan-3-yl)methoxy]-6-(morpholin-4-yl)pyridin-4-yl]-4-methylphenyl)-3-(2,2,2-trifluoroethyl)pyrrolidine-1-carboxamide], < 10 nM. As to `Cc1ccc(NC(=O)N2CC[C@@H](CC(F)(F)F)C2)cc1-c1cc(OCCC2(O)COC2)nc(N2CCOCC2)c1` [Example 225, (3S)-N-(3-[2-[2-(3-hydroxyoxetan-3-yl)ethoxy]-6-(morpholin-4-yl)pyridin-4-yl]-4-methylphenyl)-3-(2,2,2-trifluoroethyl)pyrrolidine-1-carboxamide], in assay [2], the IC50 was < 10 nM.

With `Cc1ccc(NC(=O)N2CC[C@@H](CC(F)(F)F)C2)cc1-c1cncc(N2CCOCC2)c1` [Example 226, (3S)-N-[4-methyl-3-[5-(morpholin-4-yl)pyridin-3-yl]phenyl]-3-(2,2,2-trifluoroethyl)pyrrolidine-1-carboxamide], in assay [2], the IC50 is < 10 nM. Consider `Cc1ccc(NC(=O)N2CC[C@@H](CC(F)(F)F)C2)cc1-c1cc(OC[C@@H](C)O)nc(N2CCO[C@@H](C)C2)c1` [Example 227, (3S)-N-(3-[2-[(2R)-2-hydroxypropoxy]-6-[(2S)-2-methylmorpholin-4-yl]pyridin-4-yl]-4-methylphenyl)-3-(2,2,2-trifluoroethyl)pyrrolidine-1-carboxamide], for which the IC50 in assay [2] is < 10 nM. For `Cc1ccc(NC(=O)N2CC[C@@H](CC(F)(F)F)C2)cc1-c1cc(OC[C@@H](C)O)nc(N2CCO[C@H](C)C2)c1` [Example 228, (S)-N-(3-(2-((R)-2-hydroxypropoxy)-6-((R)-2-methylmorpholino)pyridin-4-yl)-4-methylphenyl)-3-(2,2,2-trifluoroethyl)pyrrolidine-1-carboxamide], the 50% inhibitory concentration (IC50) in assay [2] is < 10 nM. Take `Cc1ccc(NC(=O)N2CC[C@@H](CC(F)(F)F)C2)cc1-c1cc(OC[C@@H](C)O)nc(N2CC3(COC3)C2)c1` [Example 229, (3S)-N-(3-[2-[(2R)-2-hydroxypropoxy]-6-[2-oxa-6-azaspiro[3.3]heptan-6-yl]pyridin-4-yl]-4-methylphenyl)-3-(2,2,2-trifluoroethyl)pyrrolidine-1-carboxamide]: the IC50 in assay [2] was < 10 nM. `Cc1ccc(NC(=O)N2CC[C@@H](CC(F)(F)F)C2)cc1-c1cc(OC[C@@H](C)O)nc(N2CCOC3CC32)c1` (stereo partly drawn) [Example 230, (3S)-N-(3-(2-(2-oxa-5-azabicyclo[4.1.0]heptan-5-yl)-6-((R)-2-hydroxypropoxy)pyridin-4-yl)-4-methylphenyl)-3-(2,2,2-trifluoroethyl)pyrrolidine-1-carboxamide]: in assay [2], the IC50 is < 10 nM. On to `Cc1ccc(NC(=O)N2CC[C@@H](CC(F)(F)F)C2)cc1-c1cc(OC2(CO)CC2)nc(N2CCOCC2)c1` [Example 231, (S)-N-(3-(2-(1-(hydroxymethyl)cyclopropoxy)-6-morpholinopyridin-4-yl)-4-methylphenyl)-3-(2,2,2-trifluoroethyl)pyrrolidine-1-carboxamide], for which the IC50 in assay [2] was < 10 nM.

As to `Cc1ccc(NC(=O)N2CC[C@@H](CC(F)(F)F)C2)cc1-c1cc(OC(C)(C)CO)nc(N2CCOCC2)c1` [Example 232, (S)-N-(3-(2-((1-hydroxy-2-methylpropan-2-yl)oxy)-6-morpholinopyridin-4-yl)-4-methylphenyl)-3-(2,2,2-trifluoroethyl)pyrrolidine-1-carboxamide], in assay [2], the IC50 is < 10 nM. With `Cc1ccc(NC(=O)N2CC[C@@H](CC(F)(F)F)C2)cc1-c1cc(O[C@H](C)[C@@H](C)O)nc(N2CCOCC2)c1` [Example 233, (S)-N-(3-(2-(((2R,3R)-3-hydroxybutan-2-yl)oxy)-6-morpholinopyridin-4-yl)-4-methylphenyl)-3-(2,2,2-trifluoroethyl)pyrrolidine-1-carboxamide], in assay [2], the IC50 was < 10 nM.
